Reference: ChEMBL document CHEMBL1938264, “Novel 3,4-isoxazolediamides as potent inhibitors of chaperone heat shock protein 90” (J Med Chem, 2011)
Activity calls are given as the source filed them. The calls are words filed in the database; no cut-off is given here.

Assays:
[1] = target: T1, Heat shock protein HSP 90-beta (Homo sapiens, UniProt P08238); experiment: Inhibition of Hsp90 in human A431 cells assessed as increase in Hsp70 protein expression at 0.11 to 0.8 uM after 24 hrs by Western blot analysis; format: cell-based; conditions: A-431
[2] = target: T1, Heat shock protein HSP 90-beta; experiment: Inhibition of Hsp90 in human A431 cells assessed as reduction in CDK4 protein expression after 24 hrs by Western blot analysis; format: cell-based; conditions: A-431
[3] = target: T1, Heat shock protein HSP 90-beta; experiment: Inhibition of Hsp90 in human A431 cells assessed as reduction in EGFR protein expression after 24 hrs by Western blot analysis; format: cell-based; conditions: A-431
[4] = target: T1, Heat shock protein HSP 90-beta; experiment: Binding affinity to Hsp90 after 4 hrs by fluorescence polarization assay
[5] = target: T1, Heat shock protein HSP 90-beta; experiment: Inhibition of Hsp90 in human A431 cells assessed as reduction in Akt protein expression after 24 hrs by Western blot analysis; format: cell-based; conditions: A-431
NCI-H460 = experiment: Cytotoxicity against human NCI-H460 after 72 hrs by sulforhodamine B assay; format: functional, cell-based; conditions: NCI-H460, 72 h
A-431 = experiment: Antitumor activity against human A431 cells xenografted in CD1 Harlan mouse assessed as tumor volume inhibition at 60 mg/kg, ip qd administered for 5 days; format: functional; conditions: A-431, ip, 120 h, route intraperitoneal
[6] = Toxicity in human A431 cells xenografted ip dosed CD1 Harlan mouse; format: organism-based, A-431; conditions: in vivo
Mus musculus [7] = experiment: Toxicity in human A431 cells xenografted CD1 Harlan mouse assessed as body weight loss at 60 mg/kg, ip qd administered for 5 days; format: organism-based, A-431; design: dose 60 mg/kg, route intraperitoneal; conditions: in vivo, 120 h
Mus musculus [8] = experiment: Degradation of Akt in human A431 cells xenografted in CD1 Harlan mouse at 60 mg/kg, ip qd administered for 5 days measured 2 hrs post-last dose by Western blot analysis; format: functional, organism-based; design: dose 60 mg/kg; conditions: A-431
Mus musculus [9] = experiment: Degradation of EGFR in human A431 cells xenografted in CD1 Harlan mouse at 60 mg/kg, ip qd administered for 5 days measured 2 hrs post-last dose by Western blot analysis; format: functional, organism-based; design: dose 60 mg/kg; conditions: A-431
Mus musculus [10] = experiment: Degradation of CDK4 in human A431 cells xenografted in CD1 Harlan mouse at 60 mg/kg, ip qd administered for 5 days measured 2 hrs post-last dose by Western blot analysis; format: functional, organism-based; design: dose 60 mg/kg; conditions: A-431
Mus musculus [11] = experiment: Increase of Hsp70 expression in human A431 cells xenografted in CD1 Harlan mouse at 60 mg/kg, ip qd administered for 5 days measured 2 hrs post-last dose by Western blot analysis; format: functional, organism-based; design: dose 60 mg/kg; conditions: A-431
[12] = target: T1, Heat shock protein HSP 90-beta; experiment: Inhibition of Hsp90 in human A431 cells assessed as increase in Hsp70 protein expression at 0.075 to 1.2 uM after 24 hrs by Western blot analysis; format: cell-based; conditions: A-431
[13] = target: T1, Heat shock protein HSP 90-beta; experiment: Inhibition of Hsp90 in human A431 cells assessed as increase in Hsp70 protein expression at 0.011 to 0.9 uM after 24 hrs by Western blot analysis; format: cell-based; conditions: A-431
[14] = target: T1, Heat shock protein HSP 90-beta; experiment: Inhibition of Hsp90 in human A431 cells assessed as increase in Hsp70 protein expression at 0.01 to 0.814 uM after 24 hrs by Western blot analysis; format: cell-based; conditions: A-431
[15] = target: T1, Heat shock protein HSP 90-beta; experiment: Inhibition of Hsp90 in human A431 cells assessed as increase in Hsp70 protein expression at 0.00493 to 1.2 uM after 24 hrs by Western blot analysis; format: cell-based; conditions: A-431
[16] = target: T1, Heat shock protein HSP 90-beta; experiment: Inhibition of Hsp90 in human A431 cells assessed as increase in Hsp70 protein expression at 0.0031 to 0.8 uM after 24 hrs by Western blot analysis; format: cell-based; conditions: A-431

T1 sequence (P08238 whole entry): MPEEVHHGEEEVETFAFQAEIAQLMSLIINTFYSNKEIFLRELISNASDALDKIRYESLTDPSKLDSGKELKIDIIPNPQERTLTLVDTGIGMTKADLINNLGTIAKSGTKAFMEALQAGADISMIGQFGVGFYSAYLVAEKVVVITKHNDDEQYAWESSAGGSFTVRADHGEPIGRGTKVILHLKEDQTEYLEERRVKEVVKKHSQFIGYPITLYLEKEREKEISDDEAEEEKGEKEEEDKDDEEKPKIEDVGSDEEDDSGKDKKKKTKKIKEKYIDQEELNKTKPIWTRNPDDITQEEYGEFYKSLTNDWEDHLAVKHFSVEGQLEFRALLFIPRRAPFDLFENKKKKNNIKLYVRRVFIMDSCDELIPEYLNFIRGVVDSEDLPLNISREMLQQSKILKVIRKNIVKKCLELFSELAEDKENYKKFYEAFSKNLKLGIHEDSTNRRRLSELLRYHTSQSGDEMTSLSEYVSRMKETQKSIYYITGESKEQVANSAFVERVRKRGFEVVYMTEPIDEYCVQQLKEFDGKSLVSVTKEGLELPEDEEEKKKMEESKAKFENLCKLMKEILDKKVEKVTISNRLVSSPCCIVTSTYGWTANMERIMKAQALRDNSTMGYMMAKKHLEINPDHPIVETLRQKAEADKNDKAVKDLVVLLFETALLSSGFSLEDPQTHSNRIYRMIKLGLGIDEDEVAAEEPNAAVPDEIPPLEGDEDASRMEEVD

Row | IC50 [4] [nM] | Compound | IC50 (NCI-H460) [nM] | other results
1 | 84 | CCNC(=O)c1noc(-c2cc(C(C)C)c(O)cc2O)c1NC(=O)c1sccc1C | 17 | inhibition [1]: Active; inhibition [2]: Dose-dependent effect; inhibition [3]: Dose-dependent effect; inhibition [5]: Dose-dependent effect
2 |  | CCNC(=O)c1noc(-c2cc(C(C)C)c(O)cc2O)c1-c1ccc(CN2CCOCC2)cc1 [LUMINESPIB] | 2.4 | inhibition in vivo at 60 mg/kg (A-431): 48%; MTD [6]: 60 mg/kg; Activity (Mus musculus [7]): 8%
3 | 24 | CCNC(=O)c1noc(-c2cc(C(C)C)c(O)cc2O)c1NC(=O)[C@H]1CC[C@@H](OC)CC1 | 13 | inhibition [2]: Dose-dependent effect; inhibition [3]: Dose-dependent effect; inhibition [13]: Active; inhibition [5]: Dose-dependent effect
4 | 20 | CCNC(=O)c1noc(-c2cc(C(C)C)c(O)cc2O)c1NC(=O)c1cc(CC)on1 | 22 | inhibition [2]: Dose-dependent effect; inhibition [3]: Dose-dependent effect; inhibition [14]: Active; inhibition [5]: Dose-dependent effect
5 | 190 | CCNC(=O)c1noc(-c2cc(C(C)C)c(O)cc2O)c1NC(=O)C1CCCCC1 | 16 | inhibition [2]: Dose-dependent effect; inhibition [15]: Active; inhibition [3]: Dose-dependent effect; inhibition [5]: Dose-dependent effect
6 | 5.4 | CCNC(=O)c1noc(-c2cc(C(C)C)c(O)cc2O)c1NC(=O)[C@H]1CC[C@H](CNS(=O)(=O)c2ccc(F)cc2)CC1 | 640 | 
7 | 22 | CCNC(=O)c1noc(-c2cc(C(C)C)c(O)cc2O)c1NC(=O)c1ccc(N2CCCC2)cc1 | 810 | 
8 | < 5 | CCNC(=O)c1noc(-c2cc(C(C)C)c(O)cc2O)c1NC(=O)[C@H]1CC[C@@H](C(N)=O)CC1 | 990 | 
9 | 163 | CCNC(=O)c1noc(-c2cc(Cl)c(O)cc2O)c1NC(=O)c1ccc(OC)c(OC)c1 | > 1000 | 
10 | 214 | CCNC(=O)c1noc(-c2cc(C(C)C)c(O)cc2O)c1NC(=O)CCN1CCOCC1 | 110 | 
11 | 85 | CCNC(=O)c1noc(-c2cc(Cl)c(O)cc2O)c1NC(=O)C(C)(C)C | 310 | 
12 | 250 | CCNC(=O)c1noc(-c2cc(Cl)c(O)cc2O)c1NC(=O)C12CC3CC(CC(C3)C1)C2 | 750 | 
13 | 15 | CCNC(=O)c1noc(-c2cc(C(C)C)c(O)cc2O)c1NC(=O)[C@H]1CC[C@@H](CO)CC1 | 870 | 
14 | 120 | CCNC(=O)c1noc(-c2cc(C(C)C)c(O)cc2O)c1NC(=O)CCN1CCN(C)CC1 | > 1000 | 
15 | < 5 | CCNC(=O)c1noc(-c2cc(C(C)C)c(O)cc2O)c1NC(=O)c1ccco1 | 22 | 
16 | 19.6 | CCNC(=O)c1noc(-c2cc(C(C)C)c(O)cc2O)c1NC(=O)[C@H]1CC[C@@H](CN2CCOCC2)CC1 | 140 | 
17 | 48 | CCNC(=O)c1noc(-c2cc(C(C)C)c(O)cc2O)c1NC(=O)c1oc2ccc(OC)cc2c1C | 750 | 
18 | 7.4 | CCNC(=O)c1noc(-c2cc(C(C)C)c(O)cc2O)c1NC(=O)[C@H]1CC[C@@H](N2CCOCC2)CC1 | 610 | 
19 | 19 | CCNC(=O)c1noc(-c2cc(C(C)C)c(O)cc2O)c1NC(=O)c1cc(C(C)=O)on1 | 82 | 
20 | 230 | CCNC(=O)c1noc(-c2cc(Cl)c(O)cc2O)c1NCc1sccc1C | > 1000 | 
21 | 15 | CCNC(=O)c1noc(-c2cc(C(C)C)c(O)cc2O)c1NC(=O)c1ccc2ncoc2c1 | 110 | 
22 | 41 | CCNC(=O)c1noc(-c2cc(C(C)C)c(O)cc2O)c1NC(=O)C(C)(C)C | 24 | inhibition [2]: Dose-dependent effect; inhibition [16]: Active; inhibition [3]: Dose-dependent effect; inhibition [5]: Dose-dependent effect

Row | Compound | IC50 [4] [nM] | IC50 (NCI-H460) [nM] | other results
23 | CCNC(=O)c1noc(-c2cc(C(C)C)c(O)cc2O)c1NC(=O)c1cc(CN2CCOCC2)on1 | 40 | 200 | Activity (Mus musculus [8]): Active; inhibition in vivo at 60 mg/kg (A-431): 48%; Activity (Mus musculus [9]): Active; MTD [6]: 60 mg/kg; Activity (Mus musculus [10]): Active; Activity (Mus musculus [7]): 7%; Activity (Mus musculus [11]): Active
24 | CCNC(=O)c1noc(-c2cc(C(C)C)c(O)cc2O)c1NC(=O)c1ccc(CN2CCOCC2)cc1 | 71 | 95 | inhibition [2]: Dose-dependent effect; inhibition in vivo at 60 mg/kg (A-431): 33%; inhibition [3]: Dose-dependent effect; inhibition [12]: Active; MTD [6]: 60 mg/kg; Activity (Mus musculus [7]): 2%; inhibition [5]: Dose-dependent effect
